US7470821B2, “Aldolase-inhibiting aromatic compounds” (Valorisation-Recherche, Limited Partnership, priority 2003, dated 2008)
Changes are numbered by the printed parent chain.

Columns and labels:
K229M mutant RM aldolase = molecular target: T1, K229M mutant RM aldolase (Oryctolagus cuniculus, UniProt P00883, K230M); test: UV-visible differential spectroscopy (method A) with mutated aldolase K229M; format: binding, rabbit; settings: FHN-P 300 μM; for kapp: 431 nm
T1 construct: made in house
T1 sequence (P00883 1-364 K230M): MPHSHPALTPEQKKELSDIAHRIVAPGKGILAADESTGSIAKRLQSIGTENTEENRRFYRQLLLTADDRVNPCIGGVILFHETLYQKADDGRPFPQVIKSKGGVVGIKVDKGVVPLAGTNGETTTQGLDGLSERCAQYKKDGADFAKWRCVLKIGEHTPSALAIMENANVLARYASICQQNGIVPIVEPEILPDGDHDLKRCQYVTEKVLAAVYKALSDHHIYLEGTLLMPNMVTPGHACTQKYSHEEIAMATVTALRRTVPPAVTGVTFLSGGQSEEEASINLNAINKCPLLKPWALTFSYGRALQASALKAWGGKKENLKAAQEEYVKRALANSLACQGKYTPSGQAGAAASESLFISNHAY
Description: (§1) For method A, absorption spectra are recorded as a function of time, between 250 and 500 nm, or at wavelengths corresponding to maximum or minimum absorption. Measurements are begun by adding FHN-P at varying final concentrations (0.1-1 mM) in the TEA buffer containing a fixed concentration of aldolase (10 μM of subunits). Measured absorption spectra for the enzyme complex are corrected using the absorbance of the buffer, the FHN—P, and the enzyme (measured separately). The differential absorption spectra thus obtained are used to calculate the value of the constants that define the formation of the aldolase-inhibitor complex.
(§2) Every UV-visible differential test spectroscopy test using mutated aldolases (10 μM of subunits) is carried out using method A. • Monitored by Electrospray Ionization Mass Spectrometry (ESI-MS).
(§3) Residues of lysine 106, 146 and 229 residues are located at the active aldolase sites and thus are candidates for causing inactivation by forming a Schiff base with the FHN-P. In order to identify which lysine is responsible for the differential absorbances in the presence of FHN-P, sporadic mutations of these lysine residues were created and named: K107M (Research Collaboratory for Structural Bioinformatics Protein Databank), K146M (Blonski C. et al., 1997, Biochem. J. 323:71-77) and […] (Research Collaboratory for Structural Bioinformatics Protein Databank). […] UV-visible differential spectroscopy (method A) was used to examine formation of the enzyme complex for each sporadic mutation in the presence of a fixed concentration of FHN-P (300 μM).

K107M mutant RM aldolase = molecular target: T2, K107M mutant RM aldolase (Oryctolagus cuniculus, UniProt P00883, K108M); test: UV-visible differential spectroscopy (method A) with mutated aldolase K107M; format: binding, rabbit; settings: FHN-P 300 μM
T2 construct: made in house
T2 sequence (P00883 1-364 K108M): T1 sequence (P00883 1-364 K230M) with K108M, M230K
Description: as §1, §2, §3

O=Cc1c(O)ccc2cc(OP(=O)(O)O)ccc12 [FHN-P, 5-formyl-6-hydroxy-2-naphthylphosphate]
Residual specific activity (K229M mutant RM aldolase): ud
ΔA relative to 432 nm (K229M mutant RM aldolase; first (rapid) phase): 95%
kapp (K229M mutant RM aldolase; first (rapid) phase): 0.040 ± 0.0025 min⁻¹
ΔA relative to 432 nm (K229M mutant RM aldolase; second (slow) phase): 25%
kapp (K229M mutant RM aldolase; second (slow) phase): 0.0015 ± 0.0003 min⁻¹
Residual specific activity (K107M mutant RM aldolase): 95%
ΔA relative to 432 nm (K107M mutant RM aldolase; slow phase only): 30%
kapp (K107M mutant RM aldolase; slow phase only, 431 nm): 0.0015 ± 0.0005 min⁻¹
